Laboratory results taken from PubChem BioAssay (NCI).
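Tested at 5 concentrations; 48 h exposure; 96-well plates; endpoints linearly interpolated, else capped at highest concentration. Abbreviation: GI50, concentration required for 50% inhibition of growth. TGI is the concentration that stops growth completely.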

Tests used:
Assay in all cases: DTP human tumour cell line panel, 48 h
OVCAR-5 ovarian = system: OVCAR-5 ovarian
M14 melanoma = system: M14 melanoma
K-562 leukemia = system: K-562 leukemia
IGROV1 ovarian = system: IGROV1 ovarian
SF-295 CNS = system: SF-295 CNS
MDA-MB-231 breast = system: MDA-MB-231 breast
HCT-116 colon = system: HCT-116 colon
NCI/ADR-RES ovarian = system: NCI/ADR-RES ovarian
SK-MEL-5 melanoma = system: SK-MEL-5 melanoma
UO-31 renal = system: UO-31 renal

| SMILES | TGI (OVCAR-5 ovarian) | TGI (M14 melanoma) | TGI (K-562 leukemia) | TGI (IGROV1 ovarian) | TGI (SF-295 CNS) | TGI (MDA-MB-231 breast) | TGI (HCT-116 colon) | TGI (NCI/ADR-RES ovarian) | TGI (SK-MEL-5 melanoma) | TGI (UO-31 renal) | GI50 (OVCAR-5 ovarian) | GI50 (M14 melanoma) | GI50 (K-562 leukemia) | GI50 (IGROV1 ovarian) | GI50 (UO-31 renal) | GI50 (SF-295 CNS) | GI50 (MDA-MB-231 breast) | GI50 (NCI/ADR-RES ovarian) | GI50 (SK-MEL-5 melanoma) | GI50 (HCT-116 colon) |
| --- | --- | --- | --- | --- | --- | --- | --- | --- | --- | --- | --- | --- | --- | --- | --- | --- | --- | --- | --- | --- |
| c1cc2c(c(NC3=NCCN3)c1)CCCC2 | > 100 µM | > 100 µM | > 100 µM | > 100 µM | > 100 µM | > 100 µM | > 100 µM | > 100 µM | > 100 µM |  |  |  |  |  |  |  |  |  |  |  |
| c1ccc2c(c1)N=C(c1ccc3ccccc3c1)CC(c1cccc3ccccc13)S2 (centres undefined) | > 100 µM | > 100 µM | 54 µM | > 100 µM | > 100 µM |  |  |  | > 100 µM | > 100 µM |  |  |  |  |  |  |  |  |  |  |
| CC1(C)OC(=O)C(=Cc2ccc([N+](=O)[O-])s2)C(=O)O1 | 31.2 µM | 26.5 µM |  |  | 30.4 µM | 36.4 µM | 9.84 µM | 39.8 µM | 30 µM | 23.6 µM |  |  |  |  |  |  |  |  |  |  |
| Nc1nc2ncn(CC(O)COC(=O)c3ccccc3)c2c(=O)[nH]1 (centres undefined) | > 100 µM | > 100 µM | > 100 µM | > 100 µM | > 100 µM |  | > 100 µM |  | > 100 µM | > 100 µM |  |  |  |  |  |  |  |  |  |  |
| O=C1N=C(Nc2nc(-c3csc(NC4=NC(=O)/C(=C\c5ccc(Cl)cc5)S4)n3)cs2)S/C1=C/c1ccc(Cl)cc1 | > 50 µM | 11.5 µM | > 50 µM | > 50 µM | > 50 µM | 35 µM |  | > 50 µM | 41 µM | > 50 µM | 25.8 µM | 3.03 µM | 7.23 µM | 19.8 µM | 17.6 µM | 17.4 µM | 10.2 µM | 18.1 µM | 3.83 µM |  |
| FC(F)(F)c1ccc(NCc2nc3ccccc3[nH]2)cc1 | 78.3 µM | > 100 µM |  | > 100 µM | 65.8 µM | 78.2 µM | 68.7 µM | 67.2 µM | 30 µM | > 100 µM | 27.8 µM | 24.7 µM |  | 39.9 µM | 30.4 µM | 18.7 µM | 22.8 µM | 21.9 µM | 15.6 µM | 23 µM |
| N=C1C(c2nc3ccccc3s2)=C(O)CN1c1cc(Cl)cc(Cl)c1 | > 100 µM |  | > 100 µM |  | > 100 µM | > 100 µM | > 100 µM | > 100 µM | > 100 µM | > 100 µM | > 100 µM |  | > 100 µM |  | 91.3 µM | 89.2 µM | 23.6 µM | > 100 µM | > 100 µM | 87.2 µM |
| NC(=O)c1ncn(Cc2ccccc2)c1CNC(N)=S | > 100 µM | > 100 µM | > 100 µM | > 100 µM | > 100 µM |  |  |  | > 100 µM | > 100 µM |  |  |  |  |  |  |  |  |  |  |
| CCCCCCCCCCCC(=O)OC(COC(N)=O)COc1ccc(Cl)cc1 (centres undefined) |  | 35 µM | 35.1 µM | 81.2 µM | 40 µM |  | 30 µM |  | 32.8 µM | > 100 µM |  |  |  |  |  |  |  |  |  |  |
| CC1CC(c2ccc(Cl)c(Cl)c2)=Nc2ccccc2S1 (centres undefined) | > 100 µM | > 100 µM | > 100 µM | > 100 µM | > 100 µM |  | > 100 µM |  | > 100 µM | > 100 µM |  |  |  |  |  |  |  |  |  |  |
| C#Cc1ccc(-n2c(/C=C/c3ccc4ccccc4c3)nc3ncccc3c2=O)cc1 | > 100 µM |  | > 100 µM | > 100 µM |  | > 100 µM |  | > 100 µM | 2.52 µM | > 100 µM | 6.88 µM |  | 2.43 µM | 2.92 µM | 3.11 µM |  | 3.74 µM | 3.29 µM | 1.16 µM |  |
| CN1CCc2cc3c4cc2C1Cc1ccc(cc1)Oc1cc(ccc1O)CC1c2c(cc(O)c(c2O4)O3)CCN1C (centres undefined) | 14.8 µM | 3.26 µM | 4.54 µM | 14.3 µM | 3.11 µM |  | 3.19 µM |  | 16.7 µM | 13.6 µM |  |  |  |  |  |  |  |  |  |  |
| N#Cc1c(N)c(C#N)c2c(c1-c1ccc(Cl)cc1)COc1ccc(F)cc1-2 | > 50 µM | > 50 µM | > 50 µM | 30.5 µM | > 50 µM | 45.7 µM |  | > 50 µM | > 50 µM | > 50 µM | 48.6 µM | 16.7 µM | > 50 µM | 6.24 µM | 10.9 µM | 13.5 µM | 7.71 µM | 30.6 µM | 16.4 µM |  |
| Cc1c(O)c(Br)c(C)c(O)c1Br (tested in a mixture with another compound) | 34.9 µM | 3.1 µM | 11.6 µM | 20.5 µM | 37.1 µM | 25.5 µM |  | > 100 µM | 11.4 µM | 3.28 µM |  |  |  |  |  |  |  |  |  |  |
| O=C(CSc1ncc(-c2ccccc2)n1-c1ccccc1)Nc1ccc(-c2nc3ccccc3s2)cc1 | > 100 µM |  | > 100 µM | > 100 µM | > 100 µM | > 100 µM | > 100 µM |  | > 100 µM |  | > 100 µM |  | > 100 µM | 2.72 µM |  | 3.53 µM | 21.4 µM |  | > 100 µM | 3.68 µM |
| NCC1(N2CCOCC2)C2CCCC21CNc1ccccc1 (centres undefined) | > 100 µM | > 100 µM | > 100 µM | > 100 µM | > 100 µM |  | > 100 µM |  | > 100 µM | > 100 µM |  |  |  |  |  |  |  |  |  |  |
| CCCCC(C(=O)CCC(=O)Nc1ccc(Cl)cc1)C(=O)C(C)C (centres undefined) | > 100 µM | > 100 µM | > 100 µM | > 100 µM | > 100 µM |  | > 100 µM |  | > 100 µM | > 100 µM |  |  |  |  |  |  |  |  |  |  |
| COC(=O)C1(O)c2ccccc2N=C2C1CCN2C (centres undefined) | > 100 µM | > 100 µM | > 100 µM | > 100 µM | > 100 µM |  | > 100 µM |  | > 100 µM | > 100 µM |  |  |  |  |  |  |  |  |  |  |
| COC(CC1(OC)OC(=O)C=C1N)OC (centres undefined) | > 100 µM | > 100 µM | > 100 µM | > 100 µM | > 100 µM |  | > 100 µM |  | > 100 µM | > 100 µM |  |  |  |  |  |  |  |  |  |  |
| Cc1ccc2nc3c(C)cc(=O)cc-3sc2c1 | 61 µM | 42.4 µM | 31.5 µM | > 100 µM | > 100 µM |  | 34.2 µM |  | 29 µM | 83.9 µM |  |  |  |  |  |  |  |  |  |  |
